Source: EP2265599B1, “CRYSTAL FORM OF PHENYLAMINOPYRIMIDINE DERIVATIVE” (Natco Pharma Limited, priority 2008, dated 2009)
“Also recorded” adds a separate entry of the source. Structures can show the parent of a compound that is named as a salt.

Tests used:
[1] = tested on: 4910 human glioma xenograft cells; experiment: Glioma radiation study, intracranially implanted 4910 cells; type: in vivo, Nude mice; settings: terminated at day 40
Method: Nude mice were intracranially implanted with 4910 human glioma xenograft cells (1x10^6 cells). Ten days after implantation mice were treated with AN019, AN024 or temozolomide with or without radiation (5Gy/week). The experiment was terminated at day 40 post implantation.

[2] = Stability of Form-III crystal form under accelerated stress conditions in bulk and formulated capsule; type: physicochemical
Excerpt: Table 5 - Stability of Form-III crystal form in bulk and formulated capsule

[3] = Heat stability of Form-III crystal form (heated in oil bath, examined by XRPD); type: physicochemical; settings: 6 hours, form-I and Form-II below the detection level
Excerpt: Pure Form-III crystal form (1 gm) prepared by the present process was placed in a boiling tube and heated gradually in oil bath. Then the substance was examined by XRPD.

[4] = Thermodynamic stability of the crystal forms at room temperature; type: physicochemical
[5] = tested on: K562 luciferase expressing cells; experiment: Leukemic survival study, K562 luciferase expressing cells implanted intraperitoneally; type: in vivo, nude mice
Excerpt: K562 luciferase expressing cells were implanted intraperitoneally into nude mice; the mice were scanned using the xenogeny IVIS image station after ip injections of luciferin does determine implantations. Drug treatment was started as in previous studies day 15 after implantation. The animals were given treatment till day 42, after which drug treatment was stopped and survival of the animals determined as per the animal care regulations. […] Drug treatment was withdrawn on day 42 post implantation and survival of animals determined.

[6] = tested on: K562 luc human leukemia cells; experiment: Low dose oral treatment of nude mice implanted with K562 luc cells (luciferase expression); type: in vivo; settings: oral administration
Method: Nude mice (nu/nu) were implanted with K562 cells (1x106) normal/luc via tail vein. Five mice were used per group and divided into 24 groups + 2 control. All groups were implanted with K562 normal/luc cells. Of the 24 groups, 12 were used for luciferase studies whereas the other 12 were used for blood smear count studies.
Drugs were administered by oral gavage (2% gum acacia and 2% SLS in an aqueous suspension).

Question: For `Cn1nnc2c(C(N)=O)ncn2c1=O` [Temozolomide, reference compound], which “animals cured / no observable intracranial tumor” value ([1]; with radiation (5Gy/week)) is on record?
Answer: The value was 2 of 10 animals.

Question: What about the “animals cured / complete absence of intracranial tumours” value ([1]; without radiation, treatment from ten days after implantation) of the same compound?
Answer: Its value is 3 of 10 animals.

Question: Which “Polymorph content of bulk compound of formula I, Polymorph form detected” value ([2]; 0 Month at 40±2°C / 75 ±5% RH) does the source give for `Cc1ccc(NC(=O)c2cc(C(F)(F)F)cc(C(F)(F)F)c2)cc1Nc1nccc(-c2cccnc2)n1` [Form-III, (3,5-bis trifluoromethyl)-N-[4-methyl-3-(4-pyridin-3yl-pyrimidin-2ylamino)-phenyl]-benzamide] here?
Answer: Its value is “Form-III”.

Question: And the “Polymorph content of bulk compound of formula I, Polymorph form detected” value ([2]; 1 Month at 40±2°C / 75 ±5% RH)?
Answer: The value was “Form-III”.

Question: What about the “Polymorph content of bulk compound of formula I, Polymorph form detected” value ([2]; 2 Months at 40±2°C / 75 ±5% RH) of the same compound?
Answer: The value was “Form-III”.

Question: What about the “Polymorph content of bulk compound of formula I, Polymorph form detected” value ([2]; 3 Months at 40±2°C / 75 ±5% RH) of the same compound?
Answer: The value was “Form-III”.

Question: What about the “Polymorph content of bulk compound of formula I, Polymorph form detected” value ([2]; 6 Months at 40±2°C / 75 ±5% RH) of the same compound?
Answer: Its value is “Form-III”.

Question: And the “Polymorph content of Formula I in formulated capsule, Polymorph form detected” value (“Polymorph content of Formula I” for short) ([2]; 0 Month at 40±2°C / 75 ±5% RH)?
Answer: The value was “Form-III”.

Question: And the “Polymorph content of Formula I” value ([2]; 1 Month at 40±2°C / 75 ±5% RH)?
Answer: The value was “Form-III”.

Question: What about the “Polymorph content of Formula I” value ([2]; 2 Months at 40±2°C / 75 ±5% RH) of the same compound?
Answer: Its value is “Form-III”.

Question: What about the “Polymorph content of Formula I” value ([2]; 3 Months at 40±2°C / 75 ±5% RH) of the same compound?
Answer: Its value is “Form-III”.

Question: And the “Polymorph content of Formula I” value ([2]; 6 Months at 40±2°C / 75 ±5% RH)?
Answer: Its value is “Form-III”.

Question: And the “Polymorph form detected after heating” value ([3]; 110°C)?
Answer: The value was “Form-III”.

Question: What about the “Polymorph form detected after heating” value ([3]; 120°C) of the same compound?
Answer: The value was “Form-III”.

Question: What about the “Polymorph form detected after heating” value ([3]; 130°C) of the same compound?
Answer: Its value is “non-metastable and stable when heated at 130 °C for 6 hours; also recorded: stable to heat even at 130 °C for 6 hours; also recorded: Form-III”.

Question: And the “stability of crystal form at room temperature” value (“stability of crystal form” for short) [4]?
Answer: Its value is “thermodynamically stable form at room temperature”.

Question: Which “stability of crystal form” value [4] does the source give for `Cc1ccc(NC(=O)c2cc(C(F)(F)F)cc(C(F)(F)F)c2)cc1Nc1nccc(-c2cccnc2)n1` [Form-I, (3,5-bis trifluoromethyl)-N-[4-methyl-3-(4-pyridin-3yl-pyrimidin-2ylamino)-phenyl]-benzamide] here?
Answer: Its value is “metastable at room temperature”.

Question: Which “leukemic symptoms after treatment withdrawal” value ([5]; drug treatment withdrawn on day 42) does the source give for `Cc1ccc(NC(=O)c2ccc(CN3CCN(C)CC3)cc2)cc1Nc1nccc(-c2cccnc2)n1` [Imatinib, Imatinib mesylate, reference compound] here?
Answer: Its value is “showed reoccurrences of leukemic symptoms after treatment withdrawal”.

Question: What about the “Blast cell count from blood smears after withdrawal of drug treatment” value ([5]; drug treatment withdrawn on day 42 (Fig. 21)) of the same compound?
Answer: The value was “found to be ineffective”.

Question: And the mortality ([5]; treatment from day 15 till day 42, then withdrawn, AN024 death determined to be other than leukemia)?
Answer: Its mortality is “showed mortality on day 55, 56, 57 and 58”.

Question: What about the luciferase expression ([6]; 10mg/kg) of the same compound?
Answer: The luciferase expression was “did show a retardation of luciferase expression”.

Question: What about the luciferase expression ([6]; 20mg/kg) of the same compound?
Answer: The luciferase expression was “did show a retardation of luciferase expression”.

Question: With `Cc1ccc(NC(=O)c2cc(C(F)(F)F)cc(C(F)(F)F)c2)cc1Nc1nccc(-c2cccnc2)n1` [Form-II, (3,5-bis trifluoromethyl)-N-[4-methyl-3-(4-pyridin-3yl-pyrimidin-2ylamino)-phenyl]-benzamide] as the compound, how does the “stability of crystal form” value [4] read?
Answer: Its value is “metastable at room temperature”.
